Structures can show the parent of a compound that is named as a salt.
Key:
[1] = test system: satellite-like cells (Pax7-positive cells) in hMP; experiment: Myotube assay: Pax7-positive (satellite-like) cell quantification; format: cell-based, human; set-up: key to Pax7% (pool of Pax7-positive cells) / Pax7: −: Depletes the pool of cells, while positively affects the myotubes; +: Maintains or increases the pool of cells, with at least 1 of the highest concentration known to be cytotoxic; ++: Maintains or increases the pool of cells, without any toxicity; conditions: myotube assay, compounds incubated 3 days
Excerpt: (§1) The efficacy of said compound for use in treating, ameliorating, delaying, curing and/or preventing a disease or condition associated with muscle cells and/or satellite cells is positively correlated with the generation of myotubes (i.e. the increase of the area occupied by myotubes on the assay) and/or satellite cells (i.e. the increase of the number of satellite cells) in the assay after adding said compound. The generation of myotubes by the addition of said compound is expressed as the EC50 value, the concentration of said compound that corresponds with the half-maximal generation of myotubes, and the MA (normalized myotube area) value, the normalized area occupied by generated myotubes on the assay. […] Since muscle cells are formed from myotubes during myogenesis, the generation of myotubes in the assay is a good indicator of the ability of said compound to induce the formation of functional muscle cells in vivo. The number of satellite cells is measured as the percentage of Pax7 positive cells, relative to the total number of cells in the assay, as shown in FIG. 3. The percentage of Pax7 is a good indicator of the ability of said compound to induce the formation of satellite cells which are able to play a role in muscle repair and regeneration in vivo.
(§2) DMD human induced pluripotent stem cells (hereafter “DMD hiPSC”), generated from the NORM-1 hiPSC WT cell line by gene editing, or WT human induced pluripotent stem cells (hereafter “WT hiPSC”), being NORM-1 hiPSC wt cell line, have been differentiated according to Chal et al. 2015, 2016, to produce muscle progenitors (hereafter “hMP”). The hMP population contains satellite-like cells (i.e Pax7-positive cells) and satellite cells' progenies (i.e. Myogenin-positive cells).
(§3) FIG. 1 provides an example of a Myotube assay workflow. At day 0, hMP are thawed and 3.1 million cells are plated into a T75-flask coated with hESC-qualified Matrigel™ (Corning) in SkGM proliferating medium (PromoCells), supplemented with 5 μM Y-27632 (Tocris Bioscience). On day 2, SkGM proliferating medium is refreshed. On day 4, hMP are harvested and transferred into a 384-well plate coated with collagen type I at a density of 3500 cells/well in a DMEM-based medium, containing 5% of knockout serum replacement (Gibco), 1% PenStrep (Gibco), 1% MEM NEAA (Gibco) and 0.1 mM 2-mercaptoethanol (Gibco) (hereafter “K5 medium”) and 5 μM Y-27632. Compounds to be tested are then added in the medium and incubated for 3 days at 37° C. On day 7, cells are fixed and immunostained. For example, myotubes (alpha-actinin staining) and satellite-like (Pax7 staining) cells can be analyzed for total myotube area per well or Pax7-positive cell quantification.
(§4) DMD hMP were put in the Myotube assay according to the workflow described in Example 2.1. In particular, compound (i) was added at concentrations ranging from 1.5 nM to 30 μM, starting from day 4. hMP were cultivated for three more days in presence of compound (i), then fixed and analyzed for percentage of Pax7-positive cells and nuclei number. Duplicates of each condition were averaged.
(−): Depletes the pool of cells, while positively affects the myotubes; (+): Maintains or increases the pool of cells, with at least 1 of the highest concentration known to be cytotoxic; and (++) Maintains or increases the pool of cells, without any toxicity.

[2] = test system: muscle progenitors (hMP) from DMD hiPSC or WT hiPSC; experiment: Myotube assay: myogenic activity (total myotube area per well); format: cell-based, human; conditions: Homo sapiens, 72 h, myotube assay, compounds incubated 3 days; for Emax: read-out: MA (normalized Myotube Area, efficacy); for EC50: 10 points dose-response 1.5 nM to 30 μM, read-out: EC50 (myogenic activity, half-maximal generation of myotubes)
Description: An in vitro assay for assessing the efficacy of compounds for use in treating, ameliorating, delaying, curing and/or preventing a disease or condition associated with muscle cells and/or satellite cells is described in example 78. Herein, the generation of myotubes and satellite cells after adding a compound to a myotube assay workflow is assessed. Said myotube assay workflow is derived from wild-type or DMD human induced pluripotent stem cells (WT hiPSC or DMD hiPSC). Before the addition of said compound, the assay comprises satellite-like cells, but no significant amount of myotubes.
as §1, §2, §3
as §4, with “quantification” for “percentage”, “total myotube area per well.” for “Pax7-positive cells and nuclei number.”
Qualitative scale: ++++: EC50<500 nM; +++: 500 nM≤EC50<1000 nM; ++: 1000 nM≤EC50<5000 nM; +: EC50≥5000 nM; +++: MA≥75%; ++: 50%≤MA<75%; +: 25%≤MA<50%.

Compound | Pax7% (pool of Pax7-positive cells) [1] | Emax [2] [%] | EC50 [2] [nM]
CSc1cc(Oc2ccnc(NCCN(C)C)c2)ccc1NC(=O)Nc1cc(C(C)(C)C)nn1-c1ccccc1 [(ck), 1-(3-(tert-butyl)-1-phenyl-1H-pyrazol-5-yl)-3-(4-((2-((2-(dimethylamino)ethyl)amino)pyridin-4-yl)oxy)-2-(methylthio)phenyl)urea Hydrochloride] | + | ≥ 75 | –
CSc1cc(Oc2ccnc3c2CCC(=O)N3)ccc1NC(=O)Nc1cc(C(C)(C)C)nn1-c1ccccc1 [(an), 1-(3-(tert-butyl)-1-phenyl-1H-pyrazol-5-yl)-3-(2-(methylthio)-4-((7-oxo-5,6,7,8-tetrahydro-1,8-naphthyridin-4-yl)oxy)phenyl)urea] | ++ | ≥ 75 | –
CSc1cc(Oc2ccnc(C(=O)Nc3ccccc3)c2)ccc1NC(=O)Nc1cc(C(C)(C)C)nn1-c1ccccc1 [(co), 4-(4-(3-(3-(tert-butyl)-1-phenyl-1H-pyrazol-5-yl)ureido)-3-(methylthio)phenoxy)-N-phenylpicolinamide] | ++ | 25 to 50 | –
CSc1cc(Oc2ccnc(NS(C)(=O)=O)c2)ccc1NC(=O)Nc1cc(C(C)(C)C)no1 [(dl), N-(4-(4-(3-(3-(tert-butyl)isoxazol-5-yl)ureido)-3-(methylthio)phenoxy)pyridin-2-yl)methanesulfonamide] | ++ | ≥ 75 | –
CSc1cc(NC(=O)Nc2cc(C(C)(C)C)nn2-c2ccccc2)ccc1Oc1ccnc2[nH]c(=O)cnc12 [(dn), 1-(3-(tert-butyl)-1-phenyl-1H-pyrazol-5-yl)-3-(3-(methylthio)-4-((3-oxo-3,4-dihydropyrido[2,3-b]pyrazin-8-yl)oxy)phenyl)urea] | + | ≥ 75 | –
CC(C)(C)c1cc(NC(=O)Nc2ccc(Oc3ccccc3)cc2F)n(-c2ccccc2)n1 [(ac), 1-(3-(tert-butyl)-1-phenyl-1H-pyrazol-5-yl)-3-(2-fluoro-4-phenoxyphenyl)urea] | ++ | 50 to 75 | –
CC(C)(C)c1cc(NC(=O)Nc2ccc(Oc3ccnc4[nH]c(=O)cnc34)c3ccccc23)n(-c2ccc3ncccc3c2)n1 [(bb), 1-(3-(tert-butyl)-1-(quinolin-6-yl)-1H-pyrazol-5-yl)-3-(4-((3-oxo-3,4-dihydropyrido[2,3-b]pyrazin-8-yl)oxy)naphthalen-1-yl)urea] | + | ≥ 75 | –
CC(C)(C)c1cc(NC(=O)Nc2ccc(C(=O)c3ccncc3)cc2)n(-c2ccccc2)n1 [(cs), 1-(3-(tert-butyl)-1-phenyl-1H-pyrazol-5-yl)-3-(4-isonicotinoylphenyl)urea] | + | 25 to 50 | –
CSc1cc(Oc2ccnc3c2ncc(=O)n3C)ccc1NC(=O)Nc1cc(C(C)(C)C)nn1-c1ccccc1 [(au), 1-(3-(tert-butyl)-1-phenyl-1H-pyrazol-5-yl)-3-(4-((4-methyl-3-oxo-3,4-dihydropyrido[2,3-b]pyrazin-8-yl)oxy)-2-(methylthio)phenyl)urea] | ++ | ≥ 75 | –
CNC(=O)c1cc(Oc2ccc(NC(=O)Nc3cc(C(C)(C)C)nn3-c3ccc4ncccc4c3)c3ccccc23)ccn1 [(bf), 4-((4-(3-(3-(tert-butyl)-1-(quinolin-6-yl)-1H-pyrazol-5-yl)ureido)naphthalen-1-yl)oxy)-N-methylpicolinamide] | + | ≥ 75 | –
CC(C)(C)c1cc(NC(=O)Nc2ccc(Oc3ccnc4[nH]c(=O)cnc34)cn2)n(-c2ccccc2)n1 [(u), 1-(3-(tert-butyl)-1-phenyl-1H-pyrazol-5-yl)-3-(5-((3-oxo-3,4-dihydropyrido[2,3-b]pyrazin-8-yl)oxy)pyridin-2-yl)urea] | ++ | 25 to 50 | –
COc1ccc(-n2nc(C(C)(C)C)cc2NC(=O)Nc2ccc(Oc3ccnc4[nH]c(=O)cnc34)cc2SC)cc1 [(aj), 1-(3-(tert-butyl)-1-(4-methoxyphenyl)-1H-pyrazol-5-yl)-3-(2-(methylthio)-4-((3-oxo-3,4-dihydropyrido[2,3-b]pyrazin-8-yl)oxy)phenyl)urea] | ++ | ≥ 75 | 500 to 1000
CC(=O)Nc1cc(Oc2ccc(NC(=O)Nc3cc(C(C)(C)C)nn3-c3ccccc3)c3ccccc23)ccn1 [(dj), N-(4-((4-(3-(3-(tert-butyl)-1-phenyl-1H-pyrazol-5-yl)ureido)naphthalen-1-yl)oxy)pyridin-2-yl)acetamide] | + | ≥ 75 | –
CNC(=O)c1cc(Oc2cccc(NC(=O)Nc3cc(C(C)(C)C)nn3-c3ccccc3)c2)ccn1 [(aa), 4-(3-(3-(3-(tert-butyl)-1-phenyl-1H-pyrazol-5-yl)ureido)phenoxy)-N-methylpicolinamide] | ++ | 50 to 75 | 1000 to 5000
O=C(Nc1ccc(Oc2ccnc3[nH]c(=O)cnc23)cc1F)Nc1c(-c2ccccc2)nn2c1CCC2 [(y), 1-(2-fluoro-4-((3-oxo-3,4-dihydropyrido[2,3-b]pyrazin-8-yl)oxy)phenyl)-3-(2-phenyl-5,6-dihydro-4H-pyrrolo[1,2-b]pyrazol-3-yl)urea] | ++ | 25 to 50 | –
CC(C)(C)c1cc(NC(=O)Nc2ccc(Oc3ccnc4[nH]c(=O)cnc34)cc2Cl)n(-c2ccccc2)n1 [(ak), 1-(3-(tert-butyl)-1-phenyl-1H-pyrazol-5-yl)-3-(2-chloro-4-((3-oxo-3,4-dihydropyrido[2,3-b]pyrazin-8-yl)oxy)phenyl)urea] | + | ≥ 75 | –
CSc1cc(Oc2ccnc3[nH]c(=O)cnc23)ccc1NC(=O)Nc1nnc(-c2ccccc2)s1 [(ay), 1-(2-(methylthio)-4-((3-oxo-3,4-dihydropyrido[2,3-b]pyrazin-8-yl)oxy)phenyl)-3-(5-phenyl-1,3,4-thiadiazol-2-yl)urea] | ++ | ≥ 75 | 1000 to 5000
CC(C)Cc1cc(NC(=O)Nc2ccc(Oc3ccnc4[nH]c(=O)cnc34)cc2F)n(-c2ccccc2)n1 [(g), 1-(2-fluoro-4-((3-oxo-3,4-dihydropyrido[2,3-b]pyrazin-8-yl)oxy)phenyl)-3-(3-isobutyl-1-phenyl-1H-pyrazol-5-yl)urea] | + | ≥ 75 | –
CC(C)(C)c1cc(NC(=O)Nc2ccc(Oc3ccncc3)cc2)n(-c2ccccc2)n1 [(bl), 1-(3-(tert-butyl)-1-phenyl-1H-pyrazol-5-yl)-3-(4-(pyridin-4-yloxy)phenyl)urea] | + | 50 to 75 | –
CCOC(=O)Nc1cc(Oc2ccc(NC(=O)Nc3cc(C(C)(C)C)no3)c(SC)c2)ccn1 [(de), Ethyl (4-(4-(3-(3-(tert-butyl)isoxazol-5-yl)ureido)-3-(methylthio)phenoxy)pyridin-2-yl)carbamate] | + | ≥ 75 | –

From US20230089368A1, “POLYAROMATIC UREA DERIVATIVES AND THEIR USE IN THE TREATMENT OF MUSCLE DISEASES” (ANAGENESIS BIOTECHNOLOGIES S.A.S., priority 2019, published 2023)
